Laboratory results from patent publication US9079901B2, “Fused heterocyclic compounds as ion channel modulators” (Gilead Sciences, Inc., priority 2010, dated 2015).

These compounds were tested against wild-type human cardiac sodium channel, hNav1.5 (late sodium current) in HEK293 cells (Homo sapiens, UniProt Q14524) (assay: Late INa screening assay (automated whole-cell patch clamp, PatchXpress)). Conditions: HEK293, compound at 1 μM; late INa generated with 10 μM Tefluthrin (or 50 nM ATX II); HEK293 hNav1.5; read-out: Late INa 1 μM (percent block of late INa).
Assay type: cell-based
In short: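 Percent block was derived from mean current 225–250 ms into a 250 ms depolarisation to −20 mV (holding −120 mV, every 10 s), normalised to the current left in Na-free solution. Whole-cell recordings came from HEK293 cells stably expressing α-subunit-only hNav1.5, at 24–27 °C. Late current was enhanced with 10 μM tefluthrin or 50 nM ATX II, then compound (typically 10 μM) was added three times over 7–8 min.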

Chain of wild-type human cardiac sodium channel, hNav1.5 (late sodium current) in HEK293 cells (Q14524 whole entry): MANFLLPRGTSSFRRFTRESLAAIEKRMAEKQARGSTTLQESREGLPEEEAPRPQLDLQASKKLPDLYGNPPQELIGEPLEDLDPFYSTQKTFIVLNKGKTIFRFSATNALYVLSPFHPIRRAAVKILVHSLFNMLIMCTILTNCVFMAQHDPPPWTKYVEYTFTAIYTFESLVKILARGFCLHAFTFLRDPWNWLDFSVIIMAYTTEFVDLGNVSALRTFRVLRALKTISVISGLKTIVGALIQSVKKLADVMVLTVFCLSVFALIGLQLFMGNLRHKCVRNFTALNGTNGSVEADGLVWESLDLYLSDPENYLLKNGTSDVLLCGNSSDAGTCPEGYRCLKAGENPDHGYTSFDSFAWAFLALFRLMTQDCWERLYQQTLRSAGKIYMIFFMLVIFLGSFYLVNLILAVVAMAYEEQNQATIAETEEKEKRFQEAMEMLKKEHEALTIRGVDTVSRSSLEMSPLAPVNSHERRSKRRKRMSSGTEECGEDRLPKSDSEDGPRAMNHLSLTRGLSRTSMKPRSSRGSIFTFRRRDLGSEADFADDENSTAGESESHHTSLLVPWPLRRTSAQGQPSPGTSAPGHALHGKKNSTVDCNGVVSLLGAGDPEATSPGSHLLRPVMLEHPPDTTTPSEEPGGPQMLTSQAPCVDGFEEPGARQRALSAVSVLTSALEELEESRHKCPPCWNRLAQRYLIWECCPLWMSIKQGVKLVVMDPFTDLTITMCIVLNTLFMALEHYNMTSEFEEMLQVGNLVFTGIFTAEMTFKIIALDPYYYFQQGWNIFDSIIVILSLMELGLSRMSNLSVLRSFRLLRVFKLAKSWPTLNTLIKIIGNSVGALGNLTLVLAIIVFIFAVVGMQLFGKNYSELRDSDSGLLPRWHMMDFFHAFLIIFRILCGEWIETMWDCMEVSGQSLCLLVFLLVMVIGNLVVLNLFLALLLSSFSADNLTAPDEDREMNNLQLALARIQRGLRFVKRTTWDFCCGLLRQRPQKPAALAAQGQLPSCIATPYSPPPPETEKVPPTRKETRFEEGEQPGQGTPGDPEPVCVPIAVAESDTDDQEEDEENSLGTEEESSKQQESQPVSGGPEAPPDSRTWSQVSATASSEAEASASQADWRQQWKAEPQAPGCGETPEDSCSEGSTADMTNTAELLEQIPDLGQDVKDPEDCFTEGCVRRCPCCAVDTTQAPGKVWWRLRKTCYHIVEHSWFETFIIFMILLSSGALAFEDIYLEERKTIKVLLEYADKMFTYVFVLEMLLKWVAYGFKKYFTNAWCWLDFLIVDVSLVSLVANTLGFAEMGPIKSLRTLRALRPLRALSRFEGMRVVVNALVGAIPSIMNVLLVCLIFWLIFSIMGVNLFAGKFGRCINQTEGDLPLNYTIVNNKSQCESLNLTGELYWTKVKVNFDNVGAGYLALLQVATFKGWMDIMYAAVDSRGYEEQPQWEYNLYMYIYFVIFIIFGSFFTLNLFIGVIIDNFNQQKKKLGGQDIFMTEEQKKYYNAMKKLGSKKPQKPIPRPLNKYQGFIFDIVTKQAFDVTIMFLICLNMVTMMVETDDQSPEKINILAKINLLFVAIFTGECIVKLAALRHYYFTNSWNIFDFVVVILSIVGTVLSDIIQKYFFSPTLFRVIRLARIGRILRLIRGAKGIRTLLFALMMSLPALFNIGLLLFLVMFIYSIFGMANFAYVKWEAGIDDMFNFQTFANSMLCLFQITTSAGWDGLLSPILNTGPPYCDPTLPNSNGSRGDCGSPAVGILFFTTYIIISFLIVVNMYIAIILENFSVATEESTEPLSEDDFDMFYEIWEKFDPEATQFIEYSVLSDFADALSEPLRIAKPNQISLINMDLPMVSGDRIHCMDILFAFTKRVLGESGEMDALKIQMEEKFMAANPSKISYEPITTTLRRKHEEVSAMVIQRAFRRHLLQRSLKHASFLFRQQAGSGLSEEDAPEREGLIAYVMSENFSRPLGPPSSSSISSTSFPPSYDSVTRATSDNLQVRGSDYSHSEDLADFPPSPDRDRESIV

Row | SMILES | inhibition at 1 µM [%]
1 | [2H]C([2H])([2H])c1noc(Cn2nc3ccc(-c4ccc(OC(F)(F)F)cc4)cn3c2=O)n1 [compound 169, 2-((3-trideuteromethyl-1,2,4-oxadiazol-5-yl)methyl)-6-(4-(trifluoromethoxy)phenyl)-[1,2,4]triazolo[4,3-a]pyridin-3(2H)-one] | 24.1
2 | O=c1n(CCc2ccc(-c3cccnc3)cn2)nc2ccc(-c3ccc(OC(F)(F)F)cc3)cn12 [compound 74, 2-(2-(3,3′-bipyridin-6-yl)ethyl)-6-(4-(trifluoromethoxy)phenyl)-[1,2,4]triazolo[4,3-a]pyridin-3(2H)-one] | 11.1
3 | COc1cc(F)ccc1OCC(Cn1nc2ccc(-c3ccc(OC(F)(F)F)cc3)cn2c1=O)OC (stereo not drawn) [compound 104, 2-(3-(4-fluoro-2-methoxyphenoxy)-2-methoxypropyl)-6-(4-(trifluoromethoxy)phenyl)-[1,2,4]triazolo[4,3-a]pyridin-3(2H)-one] | 41.5
4 | Cc1nc2ccc(OCC(O)Cn3nc4ccc(-c5ccc(OC(F)(F)F)cc5)cn4c3=O)cc2s1 (stereo not drawn) [compound 107, 2-(2-hydroxy-3-(2-methylbenzo[d]thiazol-6-yloxy)propyl)-6-(4-(trifluoromethoxy)phenyl)-[1,2,4]triazolo[4,3-a]pyridin-3(2H)-one] | 22.4
5 | COc1ccccc1OCC(O)Cn1nc2ccc(-c3ccc(OC(F)(F)F)cc3)cn2c1=O (stereo not drawn) [compound 4, 2-(2-hydroxy-3-(2-methoxyphenoxy)propyl)-6-(4-(trifluoromethoxy)phenyl)-[1,2,4]triazolo[4,3-a]pyridin-3(2H)-one] | 20.8
6 | Cc1noc(Cn2nc3ccc(-c4ccc(Cl)c(F)c4)cn3c2=O)n1 [compound 161, 6-(4-chloro-3-fluorophenyl)-2-((3-methyl-1,2,4-oxadiazol-5-yl)methyl)-[1,2,4]triazolo[4,3-a]pyridin-3(2H)-one] | 13.9
7 | O=c1n(Cc2ncco2)nc2ccc(-c3ccc(OC(F)(F)F)cc3)cn12 [compound 19, 2-(oxazol-2-ylmethyl)-6-(4-(trifluoromethoxy)phenyl)-[1,2,4]triazolo[4,3-a]pyridin-3(2H)-one] | 18.1
8 | Cn1c(CCn2nc3ccc(-c4ccc(OC(F)(F)F)cc4)cn3c2=O)nc2ccccc21 [compound 97, 2-(2-(1-methyl-1H-benzo[d]imidazol-2-yl)ethyl)-6-(4-(trifluoromethoxy)phenyl)-[1,2,4]triazolo[4,3-a]pyridin-3(2H)-one] | 16
9 | Cc1nc(Cn2nc3ccc(-c4cccc(Oc5ccccc5)c4)cn3c2=O)no1 [compound 31, 2-((5-methyl-1,2,4-oxadiazol-3-yl)methyl)-6-(3-phenoxyphenyl)-[1,2,4]triazolo[4,3-a]pyridin-3(2H)-one] | 24.4
10 | O=c1n(C/C=C/c2ccccc2)nc2ccc(-c3ccc(OC(F)(F)F)cc3)cn12 [compound 151, 2-cinnamyl-6-(4-(trifluoromethoxy)phenyl)-[1,2,4]triazolo[4,3-a]pyridin-3(2H)-one] | 16.5
11 | O=C1c2ccccc2C(=O)N1Cc1nc(Cn2nc3ccc(-c4ccc(OC(F)(F)F)cc4)cn3c2=O)no1 [compound 136, 2-((3-((3-oxo-6-(4-(trifluoromethoxy)phenyl)-[1,2,4]triazolo[4,3-a]pyridin-2(3H)-yl)methyl)-1,2,4-oxadiazol-5-yl)methyl)isoindoline-1,3-dione] | 25.2
12 | CN(C)c1nc(OCCn2nc3ccc(-c4ccc(OC(F)(F)F)cc4)cn3c2=O)ncc1F [compound 126, 2-(2-(4-(dimethylamino)-5-fluoropyrimidin-2-yloxy)ethyl)-6-(4-(trifluoromethoxy)phenyl)-[1,2,4]triazolo[4,3-a]pyridin-3(2H)-one] | 32.6
13 | O=c1n(CCOc2ncc(F)c(N3CC(F)(F)C3)n2)nc2ccc(-c3ccc(OC(F)(F)F)cc3)cn12 [compound 133, 2-(2-(4-(3,3-difluoroazetidin-1-yl)-5-fluoropyrimidin-2-yloxy)ethyl)-6-(4-(trifluoromethoxy)phenyl)-[1,2,4]triazolo[4,3-a]pyridin-3(2H)-one] | 20.5
14 | O=c1n(Cc2noc(C(F)F)n2)nc2ccc(-c3ccc(OC(F)(F)F)cc3)cn12 [compound 154, 2-((5-(difluoromethyl)-1,2,4-oxadiazol-3-yl)methyl)-6-(4-(trifluoromethoxy)phenyl)-[1,2,4]triazolo[4,3-a]pyridin-3(2H)-one] | 21
15 | COc1ccc(Br)c(CCn2nc3ccc(-c4ccc(OC(F)(F)F)cc4)cn3c2=O)n1 [compound 118, 2-(2-(3-bromo-6-methoxypyridin-2-yl)ethyl)-6-(4-(trifluoromethoxy)phenyl)-[1,2,4]triazolo[4,3-a]pyridin-3(2H)-one] | 47.9
16 | O=c1n(CCc2cccnc2)nc2ccc(-c3ccc(OC(F)(F)F)cc3)cn12 [compound 73, 2-(2-(pyridin-3-yl)ethyl)-6-(4-(trifluoromethoxy)phenyl)-[1,2,4]triazolo[4,3-a]pyridin-3(2H)-one] | 10.4
17 | O=c1n(CCc2ccc(F)cc2)nc2ccc(-c3ccc(OC(F)(F)F)cc3)cn12 [compound 59, 2-(4-fluorophenethyl)-6-(4-(trifluoromethoxy)phenyl)-[1,2,4]triazolo[4,3-a]pyridin-3(2H)-one] | 27.1
18 | O=c1n(CC2CCc3ccccc3O2)nc2ccc(-c3ccc(OC(F)(F)F)cc3)cn12 (stereo not drawn) [compound 77, 2-(chroman-2-ylmethyl)-6-(4-(trifluoromethoxy)phenyl)-[1,2,4]triazolo[4,3-a]pyridin-3(2H)-one] | 32.1
19 | O=c1n(CCCOc2ccccc2)nc2ccc(-c3ccc(OC(F)(F)F)cc3)cn12 [compound 24, 2-(3-phenoxypropyl)-6-(4-(trifluoromethoxy)phenyl)-[1,2,4]triazolo[4,3-a]pyridin-3(2H)-one] | 25
20 | Cn1cc(Cn2nc3ccc(-c4ccc(OC(F)(F)F)cc4)cn3c2=O)cn1 [compound 163, 2-((1-methyl-1H-pyrazol-4-yl)methyl)-6-(4-(trifluoromethoxy)phenyl)-[1,2,4]triazolo[4,3-a]pyridin-3(2H)-one] | 12
21 | O=c1n(CCOc2nccc(OCCO)n2)nc2ccc(-c3ccc(OC(F)(F)F)cc3)cn12 [compound 156, 2-(2-(4-(2-hydroxyethoxy)pyrimidin-2-yloxy)ethyl)-6-(4-(trifluoromethoxy)phenyl)-[1,2,4]triazolo[4,3-a]pyridin-3(2H)-one] | 6.62
22 | Cc1nc(Cn2nc3ccc(-c4ccc(Oc5ccc(Cl)cc5)cc4)cn3c2=O)no1 [compound 32, 6-(4-(4-chlorophenoxy)phenyl)-2-((5-methyl-1,2,4-oxadiazol-3-yl)methyl)-[1,2,4]triazolo[4,3-a]pyridin-3(2H)-one] | 68.5
23 | N#Cc1ccccc1OCCCn1nc2ccc(-c3ccc(OC(F)(F)F)cc3)cn2c1=O [compound 70, 2-(3-(3-oxo-6-(4-(trifluoromethoxy)phenyl)-[1,2,4]triazolo[4,3-a]pyridin-2(3H)-yl)propoxy)benzonitrile] | 29.9
24 | O=c1n(CCOc2ccc(Cl)cc2)nc2ccc(-c3ccc(OC(F)(F)F)cc3)cn12 [compound 40, 2-(2-(4-chlorophenoxy)ethyl)-6-(4-(trifluoromethoxy)phenyl)-[1,2,4]triazolo[4,3-a]pyridin-3(2H)-one] | 34.3
